Among the data in the supplement of paper PMC10307832 are relative viability values, retold here.

Holding throughout (assay): relative viability (nuclei count vs DMSO), 5 days (fraction); higher = more cells survive
Compound in test [1]: C1=CC=C2C(=C1)N=C(S2)C(C#N)C3=NC(=NC=C3)NCCC4=CN=CC=C4 + Nc1nc2[nH]cc(CCc3ccc(C(=O)N[C@@H](CCC(=O)O)C(=O)O)cc3)c2c(=O)[nH]1 [Pemetrexed] (partner 0.2 µM)
In outline:
(§1)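 Lung cancer cell lines in 1536-well plates were dosed by pin tool the day after seeding, either with one drug alone or with a fixed anchor-drug dose plus five library-drug doses (not always all listed) in √10 steps. After 5 days, cells were fixed and their nuclei stained in one step (final 0.05% Triton X-100, 1% formaldehyde, 1 ug/ml Hoechst), then counted on 4× images. Relative viability is the nuclei count in treated wells divided by that in vehicle wells. Values are medians of duplicate plates.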

Compound in test [2]: C1=CC=C2C(=C1)N=C(S2)C(C#N)C3=NC(=NC=C3)NCCC4=CN=CC=C4 + O=C(CCCCCCC(=O)Nc1ccccc1)NO [Vorinostat] (partner 1 µM)
In outline: as §1

Compound in the test “NVP-TAE684 + Trametinib”: COc1cc(N2CCC(N3CCN(C)CC3)CC2)ccc1Nc1ncc(Cl)c(Nc2ccccc2S(=O)(=O)C(C)C)n1 [NVP-TAE684] + CC(=O)Nc1cccc(-n2c(=O)n(C3CC3)c(=O)c3c(Nc4ccc(I)cc4F)n(C)c(=O)c(C)c32)c1 [Trametinib] (partner 0.02 µM)
The procedure, abridged:
as §1

Compound in the test “NVP-TAE684 + OSI-027”: COc1cc(N2CCC(N3CCN(C)CC3)CC2)ccc1Nc1ncc(Cl)c(Nc2ccccc2S(=O)(=O)C(C)C)n1 [NVP-TAE684] + COc1cccc2cc(-c3nc([C@H]4CC[C@H](C(=O)O)CC4)n4ncnc(N)c34)[nH]c12 [OSI-027] (partner 0.5 µM)
The procedure, abridged:
as §1

Compound in the test “Vandetanib + Phenformin”: COc1cc2/c(=N/c3ccc(Br)cc3F)nc[nH]c2cc1OCC1CCN(C)CC1 [Vandetanib] + N=C(N)NC(=N)NCCc1ccccc1 [Phenformin] (partner 250 µM)
The procedure, abridged: as §1

As for UMC-11, the relative viability came to 0.79 in test [1] (first compound 0.01581 µM); 0.769 in test [1] (first compound 0.05 µM); 0.94 in test [1] (first compound 0.1581 µM); 0.771 in test [1] (first compound 0.5 µM); 0.36 in test [2] (first compound 0.01581 µM); 0.402 in test [2] (first compound 0.05 µM). For the same cell line, the relative viability in test [2] (first compound 0.1581 µM) was 0.42; in test [2] (first compound 0.5 µM) it was 0.422; with NVP-TAE684 + Trametinib (first compound 0.2 µM), 0.701; with NVP-TAE684 + Trametinib (first compound 0.6325 µM), 0.636; in the test with NVP-TAE684 + Trametinib (first compound 2 µM), 0.434; in the test with NVP-TAE684 + OSI-027 (first compound 0.2 µM), 0.412. The relative viability in the test with NVP-TAE684 + OSI-027 (first compound 0.6325 µM) is 0.438; with NVP-TAE684 + OSI-027 (first compound 2 µM) it was 0.282; with Vandetanib + Phenformin (first compound 0.02 µM), 0.3; with Vandetanib + Phenformin (first compound 0.06325 µM) it was 0.308; in the test with Vandetanib + Phenformin (first compound 0.2 µM) it was 0.33; with Vandetanib + Phenformin (first compound 0.6325 µM), 0.289. In addition, the relative viability in the test with Vandetanib + Phenformin (first compound 2 µM) was determined as 0.335.
